# Assay results from ChEMBL document CHEMBL5550186, “Exploring the Potential of Cyclic Peptidyl Antitumor Agents Derived from Natural Macrocyclic Peptide Phakellistatin 13” (J Med Chem, 2024).
# Starred links: 1 amine or outer side, 2 acyl side, 3 side chain; linkers in the order of their positions; H or OH if unused. Non-standard residues stand in square brackets, D forms with d. Residues, ends and D or L forms follow the SMILES beside them. *: point of attachment. X1 = O=C1c2ccccc2[C@@](O)(CN(Cc2ccccc2)[*:1])N1CC(=O)[*:2]; X2 = O=C1c2ccccc2[C@](O)(CN(Cc2ccccc2)[*:1])N1CC(=O)[*:2]; Bn = c1ccc(C*)cc1
# Experiments:
# [1] = tested on: HepG2; test: Antiproliferative activity against human HepG2 cells incubated for 48 hrs by MTT assay; assay type: functional, cell-based; conditions: HepG2, 48 h
# [2] = tested on: HeLa; test: Antiproliferative activity against human HeLa cells incubated for 48 hrs by MTT assay; assay type: functional, cell-based
# [3] = tested on: MDA-MB-231; test: Antiproliferative activity against human MDA-MB-231 cells incubated for 48 hrs by MTT assay; assay type: functional, cell-based; conditions: MDA-MB-231, 48 h
# [4] = tested on: BEL-7404 tumor cell line; test: Antiproliferative activity against human BEL-7404 tumor cell line incubated for 48 hrs by MTT assay; assay type: functional, cell-based; conditions: BEL-7404, 48 h
# [5] = tested on: 4T1; test: Antiproliferative activity against mouse 4T1 cells incubated for 48 hrs by MTT assay; assay type: functional, cell-based; conditions: 4T1, 48 h
# [6] = Antiproliferative activity against mouse L929 cells incubated for 48 hrs by MTT assay; assay type: toxicity, cell-based
IC50 [1] [µM],IC50 [2] [µM],IC50 [3] [µM],IC50 [4] [µM],IC50 [5] [µM],SMILES,IC50 at 48 h [6] [µM]
29,31,17.8,25.7,42.4,CC(C)C[C@H]1NC(=O)[C@@H]([C@H](C)OCc2ccccc2)NC(=O)[C@H]2CCCN2C(=O)CN2C(=O)c3ccccc3[C@@]2(O)CN(Cc2ccccc2)C(=O)[C@@H](Cc2ccccc2)NC(=O)[C@H]2CCCN2C(=O)[C@@H](Cc2c[nH]c3ccccc23)NC1=O,> 100
24.1,28.6,15.4,30,54.7,CC(C)C[C@@H]1NC(=O)[C@H]([C@@H](C)OCc2ccccc2)NC(=O)[C@@H]2CCCN2C(=O)CN2C(=O)c3ccccc3[C@@]2(O)CN(Cc2ccccc2)C(=O)[C@H](Cc2ccccc2)NC(=O)[C@@H]2CCCN2C(=O)[C@H](Cc2c[nH]c3ccccc23)NC1=O,> 100
44.3,52.8,14,36.1,65.2,CC(C)C[C@@H]1NC(=O)[C@H]([C@@H](C)OCc2ccccc2)NC(=O)[C@@H]2CCCN2C(=O)[C@H](Cc2ccccc2)NC(=O)[C@@H]2CCCN2C(=O)CN2C(=O)c3ccccc3[C@]2(O)CN(Cc2ccccc2)C(=O)[C@H](Cc2c[nH]c3ccccc23)NC1=O (cyclo(FPT(Bn)LW[X2]P)),> 100

# More lines, now with the values behind:
SMILES,IC50 [1] [µM],IC50 [2] [µM],IC50 [3] [µM],IC50 [4] [µM],IC50 [5] [µM],IC50 at 48 h [6] [µM]
CC(C)C[C@@H]1NC(=O)[C@H]([C@@H](C)O)NC(=O)[C@@H]2CCCN2C(=O)CNC(=O)[C@H](Cc2ccccc2)NC(=O)[C@@H]2CCCN2C(=O)[C@H](Cc2c[nH]c3ccccc23)NC1=O [PHAKELLISTATIN 13] (cyclo(FGPTLWP)),13.1,28.1,20.5,49.9,26.8,> 100
CC(C)C[C@@H]1NC(=O)[C@H]([C@@H](C)OCc2ccccc2)NC(=O)[C@@H]2CCCN2C(=O)[C@H](Cc2ccccc2)NC(=O)CN2C(=O)c3ccccc3[C@@]2(O)CN(Cc2ccccc2)C(=O)[C@@H]2CCCN2C(=O)[C@H](Cc2c[nH]c3ccccc23)NC1=O (cyclo(FPT(Bn)LWP[X1])),28.9,33.9,29.3,30.2,42.6,> 100
CC(C)C[C@@H]1NC(=O)[C@H]([C@@H](C)OCc2ccccc2)NC(=O)CN2C(=O)c3ccccc3[C@]2(O)CN(Cc2ccccc2)C(=O)[C@@H]2CCCN2C(=O)[C@H](Cc2ccccc2)NC(=O)[C@@H]2CCCN2C(=O)[C@H](Cc2c[nH]c3ccccc23)NC1=O (cyclo(FP[X2]T(Bn)LWP)),32.6,50.8,26.1,38.9,65.9,> 100
CC(C)C[C@@H]1NC(=O)CN2C(=O)c3ccccc3[C@]2(O)CN(Cc2ccccc2)C(=O)[C@H]([C@@H](C)OCc2ccccc2)NC(=O)[C@@H]2CCCN2C(=O)[C@H](Cc2ccccc2)NC(=O)[C@@H]2CCCN2C(=O)[C@H](Cc2c[nH]c3ccccc23)NC1=O (cyclo(FPT(Bn)[X2]LWP)),35.5,55.6,32.6,41.7,58.9,> 100
COc1cccc2c1C(=O)c1c(O)c3c(c(O)c1C2=O)C[C@@](O)(C(=O)CO)C[C@@H]3O[C@H]1C[C@H](N)[C@H](O)[C@H](C)O1 [DOXORUBICIN],26.6,20.9,,,,> 100
CC(C)C[C@@H]1NC(=O)[C@H]([C@@H](C)OCc2ccccc2)NC(=O)[C@@H]2CCCN2C(=O)[C@H](Cc2ccccc2)NC(=O)[C@@H]2CCCN2C(=O)[C@H](Cc2c[nH]c3ccccc23)NC(=O)CN2C(=O)c3ccccc3[C@@]2(O)CN(Cc2ccccc2)C1=O (cyclo(FPT(Bn)L[X1]WP)),31.1,35.9,14.4,28.7,67.5,> 100
